Positions of bridges follow the written chain, without caps; N, C: chain ends. Non-standard residues stand in square brackets, D forms with d. Residues, ends and D or L forms follow the SMILES beside them. Trp(5-OH) = N[C@@H](Cc1c[nH]c2ccc(O)cc12)C(=O)O; NMePhe(4-F) = CN[C@@H](Cc1ccc(F)cc1)C(=O)O; NMehPhe = CN[C@@H](CCc1ccccc1)C(=O)O; NMeAoc(2) = CCCCCC[C@H](NC)C(=O)O; NMeAhp(2) = CCCCC[C@H](NC)C(=O)O; NMeE = CN[C@@H](CCC(=O)O)C(=O)O; Aad = N[C@@H](CCCC(=O)O)C(=O)O; Gly(cPr) = N[C@H](C(=O)O)C1CC1; Aoc(2) = CCCCCC[C@H](N)C(=O)O; Ahp(2) = CCCCC[C@H](N)C(=O)O; NMeK = CN[C@@H](CCCCN)C(=O)O; NMeDap = CN[C@@H](CN)C(=O)O; NMeS = CN[C@@H](CO)C(=O)O; Dap = NC[C@H](N)C(=O)O
Key:
Assay type in all cases: binding
human HER2 (23-652) [1] = target: T1, human HER2 (23-652) (Homo sapiens, UniProt P04626); assay: TR-FRET competition assay for peptide potency, human HER2; design: towards human HER2 (23-652) and mouse HER2 (23-653); made in house; host or cells: mammalian cells; conditions: read-out: huHER2 TR-FRET IC50
mouse HER2 (23-653) [2] = target: T2, mouse HER2 (23-653) (Mus musculus, UniProt P70424); assay: Surface plasmon resonance (SPR) for assessment of peptide affinity, mouse HER2; design: mouse HER2 (23-653) using a Cy5 labeled peptide as a probe; made in house; conditions: SPR, mouse HER2 extracellular domain, 25° C., 1:1 binding model; for Kd: read-out: moHER2-SPR-ONC KD
From the text: Each protein was immobilized either onto a SA sensorchip (Cytiva, BR-1005-31) or CM5 sensorchip (Cytiva, BR-1005-30) to a density of 800-2000 RU.

human HER2 (23-652) [3] = target: T1, human HER2 (23-652); assay: Surface plasmon resonance (SPR) for assessment of peptide affinity, human HER2; design: towards human HER2 (23-652) and mouse HER2 (23-653); made in house; conditions: SPR, human HER2 extracellular domain, 25° C., 1:1 binding model; for Kd: read-out: huHER2-SPR-ONC KD
How it was run: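 Binding kinetics fitted from sensorgrams with 280 s peptide association then 3000 s dissociation (30 uL/min), using HER2 (23-652) either directly immobilized (SA/CM5) or anti-Fc-captured; 3 M magnesium chloride used for regeneration.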

mouse HER2 (23-653) [4] = target: T2, mouse HER2 (23-653); assay: TR-FRET competition assay for peptide potency, mouse HER2; design: mouse HER2 (23-653) using a Cy5 labeled peptide as a probe; made in house; host or cells: mammalian cells; conditions: TR-FRET competition with Cy5 labeled peptide probe, 0.1 nM mouse HER2, 24 h incubation; read-out: moHER2 TR-FRET IC50

Structure (SMILES) | IC50 (human HER2 (23-652) [1]) [nM] | Kd (mouse HER2 (23-653) [2]) [nM] | Kd (human HER2 (23-652) [3]) [nM] | IC50 (mouse HER2 (23-653) [4]) [nM] | moHER2-SPR-ONC KD (mouse HER2 (23-653) [2]) | huHER2-SPR-ONC KD (human HER2 (23-652) [3])
CC(=O)N[C@H]1CCC(=O)NC[C@@H](C(=O)N(C)[C@@H](Cc2ccc(F)cc2)C(N)=O)N(C)C(=O)[C@H](C2CC2)NC(=O)[C@H](Cc2c[nH]c3ccccc23)NC(=O)[C@H](Cc2cnn3ccccc23)NC(=O)[C@H](CO)N(C)C(=O)[C@H](CCc2ccccc2)N(C)C(=O)[C@H](CO)NC(=O)[C@H](Cc2ccc(O)cc2)NC1=O [Example A16, (3S,6S,9S,12S,15S,18S,21S,24S,27S)-9-((1H-indol-3-yl)methyl)-27-acetamido-N-((S)-1-amino-3-(4-fluorophenyl)-1-oxopropan-2-yl)-6-cyclopropyl-24-(4-hydroxybenzyl)-15,21-bis(hydroxymethyl)-N,4,16,19-tetramethyl-5,8,11,14,17,20,23,26,30-nonaoxo-18-phenethyl-12-(pyrazolo[1,5-a]pyridin-3-ylmethyl)-1,4,7,10,13,16,19,22,25-nonaazacyclotriacontane-3-carboxamide] | > 1000 | > 6000 | > 6000 | > 1000 | – | –
CCCCC[C@@H]1NC(=O)[C@H](Cc2c[nH]c3ccc(O)cc23)NC(=O)[C@H](CCCCNC(C)=O)N(C)C(=O)[C@H](CCc2ccccc2)N(C)C(=O)[C@H](CO)NC(=O)[C@H](Cc2ccc(O)cc2)NC(=O)[C@@H](NC(C)=O)CCCC(=O)NC[C@@H](C(=O)N(C)[C@@H](Cc2ccc(F)cc2)C(N)=O)N(C)C(=O)[C@H](C2CC2)NC1=O [Example A17, (3S,6S,9S,12S,15S,18S,21S,24S,27S)-27-acetamido-15-(4-acetamidobutyl)-N-((S)-1-amino-3-(4-fluorophenyl)-1-oxopropan-2-yl)-6-cyclopropyl-12-((5-hydroxy-1H-indol-3-yl)methyl)-24-(4-hydroxybenzyl)-21-(hydroxymethyl)-N,4,16,19-tetramethyl-5,8,11,14,17,20,23,26,31-nonaoxo-9-pentyl-18-phenethyl-1,4,7,10,13,16,19,22,25-nonaazacyclohentriacontane-3-carboxamide] (Ac-[Aad]YS[NMehPhe][NMeK](Ac)[Trp(5-OH)][Ahp(2)][Gly(cPr)][NMeDap][NMePhe(4-F)]-NH2; lactam 1-9) | > 1000 | > 6000 | > 6000 | > 1000 | – | –
CCCCCC[C@@H]1NC(=O)[C@H](Cc2c[nH]c3ccc(O)cc23)NC(=O)[C@H](CCCCNC(C)=O)N(C)C(=O)[C@H](CCc2ccccc2)N(C)C(=O)[C@H](CO)NC(=O)[C@H](Cc2ccc(O)cc2)NC(=O)[C@@H](NC(C)=O)CCCC(=O)NC[C@@H](C(=O)N(C)[C@@H](Cc2ccc(F)cc2)C(N)=O)N(C)C(=O)[C@H](C2CC2)NC1=O [Example A18, (3S,6S,9S,12S,15S,18S,21S,24S,27S)-27-acetamido-15-(4-acetamidobutyl)-N-((S)-1-amino-3-(4-fluorophenyl)-1-oxopropan-2-yl)-6-cyclopropyl-9-hexyl-12-((5-hydroxy-1H-indol-3-yl)methyl)-24-(4-hydroxybenzyl)-21-(hydroxymethyl)-N,4,16,19-tetramethyl-5,8,11,14,17,20,23,26,31-nonaoxo-18-phenethyl-1,4,7,10,13,16,19,22,25-nonaazacyclohentriacontane-3-carboxamide] (Ac-[Aad]YS[NMehPhe][NMeK](Ac)[Trp(5-OH)][Aoc(2)][Gly(cPr)][NMeDap][NMePhe(4-F)]-NH2; lactam 1-9) | > 1000 | > 6000 | > 6000 | > 1000 | – | –
CC(=O)N[C@H]1CNC(=O)CC[C@@H](C(=O)N(C)[C@@H](Cc2ccc(F)cc2)C(N)=O)N(C)C(=O)[C@H](C2CC2)NC(=O)[C@H](Cc2c[nH]c3ccccc23)NC(=O)[C@H](Cc2c[nH]c3ccc(O)cc23)NC(=O)[C@H](CO)N(C)C(=O)[C@H](CCc2ccccc2)N(C)C(=O)[C@H](CO)NC(=O)[C@H](Cc2ccc(O)cc2)NC1=O [Example A19, (3S,6S,9S,12S,15S,18S,21S,24S,30S)-6-((1H-indol-3-yl)methyl)-24-acetamido-N-((S)-1-amino-3-(4-fluorophenyl)-1-oxopropan-2-yl)-3-cyclopropyl-9-((5-hydroxy-1H-indol-3-yl)methyl)-21-(4-hydroxybenzyl)-12,18-bis(hydroxymethyl)-N,1,13,16-tetramethyl-2,5,8,11,14,17,20,23,27-nonaoxo-15-phenethyl-1,4,7,10,13,16,19,22,26-nonaazacyclotriacontane-30-carboxamide] (Ac-[Dap]YS[NMehPhe][NMeS][Trp(5-OH)]W[Gly(cPr)][NMeE][NMePhe(4-F)]-NH2; lactam 1-9) | > 1000 | – | – | > 1000 | no binding* | no binding*

More lines, now with the values ahead:

IC50 (human HER2 (23-652) [1]) [nM] | Kd (mouse HER2 (23-653) [2]) [nM] | Kd (human HER2 (23-652) [3]) [nM] | IC50 (mouse HER2 (23-653) [4]) [nM] | moHER2-SPR-ONC KD (mouse HER2 (23-653) [2]) | huHER2-SPR-ONC KD (human HER2 (23-652) [3]) | Structure (SMILES)
> 1000 | 864 | 1340 | > 1000 | – | – | CC(=O)N[C@H]1CCC(=O)NC[C@@H](C(=O)N(C)[C@@H](Cc2ccc(F)cc2)C(N)=O)NC(=O)[C@H](C2CC2)NC(=O)[C@H](Cc2c[nH]c3ccccc23)NC(=O)[C@H](Cc2c[nH]c3ccc(O)cc23)NC(=O)[C@H](CO)N(C)C(=O)[C@H](CCc2ccccc2)N(C)C(=O)[C@H](CO)NC(=O)[C@H](Cc2ccc(O)cc2)NC1=O [Example A12, (3S,6S,9S,12S,15S,18S,21S,24S,27S)-9-((1H-indol-3-yl)methyl)-27-acetamido-N-((S)-1-amino-3-(4-fluorophenyl)-1-oxopropan-2-yl)-6-cyclopropyl-12-((5-hydroxy-1H-indol-3-yl)methyl)-24-(4-hydroxybenzyl)-15,21-bis(hydroxymethyl)-N,16,19-trimethyl-5,8,11,14,17,20,23,26,30-nonaoxo-18-phenethyl-1,4,7,10,13,16,19,22,25-nonaazacyclotriacontane-3-carboxamide]
46 | 44 | 40 | 107 | – | – | CCCCCC[C@@H](C(N)=O)N(C)C(=O)[C@@H]1CNC(=O)CCC[C@H](NC(C)=O)C(=O)N[C@@H](Cc2ccc(O)cc2)C(=O)N[C@@H](CO)C(=O)N(C)[C@@H](CCc2ccccc2)C(=O)N(C)[C@@H](CCCCNC(C)=O)C(=O)N[C@@H](Cc2c[nH]c3ccc(O)cc23)C(=O)N[C@@H](Cc2c[nH]c3ccccc23)C(=O)N[C@@H](C2CC2)C(=O)N1C [Example A13, (3S,6S,9S,12S,15S,18S,21S,24S,27S)-9-((1H-indol-3-yl)methyl)-27-acetamido-15-(4-acetamidobutyl)-N-((S)-1-amino-1-oxooctan-2-yl)-6-cyclopropyl-12-((5-hydroxy-1H-indol-3-yl)methyl)-24-(4-hydroxybenzyl)-21-(hydroxymethyl)-N,4,16,19-tetramethyl-5,8,11,14,17,20,23,26,31-nonaoxo-18-phenethyl-1,4,7,10,13,16,19,22,25-nonaazacyclohentriacontane-3-carboxamide] (Ac-[Aad]YS[NMehPhe][NMeK](Ac)[Trp(5-OH)]W[Gly(cPr)][NMeDap][NMeAoc(2)]-NH2; lactam 1-9)
27 | 24 | 24 | 55 | – | – | CCCCC[C@@H](C(N)=O)N(C)C(=O)[C@@H]1CNC(=O)CCC[C@H](NC(C)=O)C(=O)N[C@@H](Cc2ccc(O)cc2)C(=O)N[C@@H](CO)C(=O)N(C)[C@@H](CCc2ccccc2)C(=O)N(C)[C@@H](CCCCNC(C)=O)C(=O)N[C@@H](Cc2c[nH]c3ccc(O)cc23)C(=O)N[C@@H](Cc2c[nH]c3ccccc23)C(=O)N[C@@H](C2CC2)C(=O)N1C [Example A15, (3S,6S,9S,12S,15S,18S,21S,24S,27S)-9-((1H-indol-3-yl)methyl)-27-acetamido-15-(4-acetamidobutyl)-N-((S)-1-amino-1-oxoheptan-2-yl)-6-cyclopropyl-12-((5-hydroxy-1H-indol-3-yl)methyl)-24-(4-hydroxybenzyl)-21-(hydroxymethyl)-N,4,16,19-tetramethyl-5,8,11,14,17,20,23,26,31-nonaoxo-18-phenethyl-1,4,7,10,13,16,19,22,25-nonaazacyclohentriacontane-3-carboxamide] (Ac-[Aad]YS[NMehPhe][NMeK](Ac)[Trp(5-OH)]W[Gly(cPr)][NMeDap][NMeAhp(2)]-NH2; lactam 1-9)

Source: patent publication US20250332300A1 (priority 2024, published 2025)
